Test results: patent publication US8992674B2, “Ink, ink cartridge and ink jet recording method” (Canon Kabushiki Kaisha, priority 2012, dated 2015)

Assay: Measurement of Δλmax (UV-Vis absorption spectra in 20.0% 1,2-hexanediol aqueous solution and in water)
Type: physicochemical
Conditions: for λmaxD: maximum absorption wavelength in 20.0% by mass aqueous solution of 1,2-hexanediol; for λmaxD / λmaxW: coloring material 0.002 to 0.005%; for λmaxW: maximum absorption wavelength in ion-exchange water; for Δλmax: λmaxD−λmaxW
Text: Specifically, the ink according to the present invention contains a first coloring material and a second coloring material satisfying the following conditions. […] Further, the sum of the Δλmax1 and the Δλmax2 needs to be 35.0 or less. λmax refers to a maximum absorption wavelength in the visible region (380 to 750 nm) in a UV-Vis absorption spectrum of a coloring material, and can be measured using a spectrophotometer.
In a coloring material in which an associating state and a non-associating state are concurrently present, the absorption spectrum has a plurality of maximal-absorption wavelengths in some cases. Then, respective peak shapes (heights) at the maximal-absorption wavelengths representing the associating state and the non-associating state vary depending on a liquid medium to be used in some cases. The maximum absorption wavelength in the present invention means the following. That is, even in the case where a maximum absorption wavelength in an absorption spectrum in 20.0% by mass aqueous solution of 1,2-hexanediol shifts based on an absorption spectrum in water, a peak originated from a maximum absorption wavelength in water is taken as the maximum absorption wavelength. […] In the present invention, since it is important to consider the shift of a wavelength giving a highest absorbance, a maximum absorption wavelength in 20.0% by mass aqueous solution of 1,2-hexanediol is considered to be a maximal-absorption wavelength on a larger wavelength side, which is a peak originated from a maximum absorption wavelength in water.
For each coloring material, the difference Δλmax (=λmaxD−λmaxW) between a maximum absorption wavelength (λmaxD) in a 20.0% by mass aqueous solution of 1,2-hexanediol and a maximum absorption wavelength (λmaxW) in water in UV-Vis absorption spectra was measured. λmaxD and λmaxW were measured by diluting each coloring material by using a 20.0% by mass aqueous solution of 1,2-hexanediol or ion-exchange water so that the content of the coloring material became 0.002 to 0.005%. The measurement condition is shown below. Then, the value Δλmax=λmaxD−λmaxW was determined from the measurement. Here, the unit of λmax is “nm.”
Spectrophotometer: a self-recording spectrophotometer (trade name “U-3300,” made by Hitachi, Ltd.)
Measurement cell: 1-cm quartz cell
Sampling interval: 0.1 nm
Scanning speed: 30 nm/min

λmaxD [nm] | λmaxW [nm] | Δλmax [nm] | Compound
520.0 | 524.0 | −4.0 | Cc1ccc(S(=O)(=O)Nc2cc(S(=O)(=O)[O-])cc3cc(S(=O)(=O)[O-])c(N=Nc4cc(Cl)ccc4Oc4ccccc4)c(O)c23)cc1.[Na+].[Na+] [C.I. Acid Red 249]
430.5 | 427.0 | 3.5 | O=C(O)c1nn(-c2ccc(S(=O)(=O)O)cc2)c(O)c1N=Nc1ccc(S(=O)(=O)O)cc1 [C.I. Acid Yellow 23]
411.0 | 405.5 | 5.5 | COc1cc(N=Nc2cccc(S(=O)(=O)O)c2)ccc1NC(=O)Nc1ccc(N=Nc2cccc(S(=O)(=O)O)c2)cc1OC [C.I. Direct Yellow 132]
595.0 | 585.5 | 9.5 | Nc1cc2c(O)c(N=Nc3ccc(N=Nc4ccc(S(=O)(=O)[O-])cc4)c4ccc(S(=O)(=O)[O-])cc34)c(S(=O)(=O)[O-])cc2cc1S(=O)(=O)[O-].[Na+].[Na+].[Na+].[Na+] [C.I. Food Black 2]
630.5 | 605.5 | 25.0 | Cc1c(C#N)c(Nc2ccc(S(=O)(=O)O)cc2)nc(Nc2ccc(S(=O)(=O)O)cc2)c1N=Nc1sc(N=Nc2ccccc2C#N)c(-c2ccc(Nc3nc(NCCS(=O)(=O)O)nc(Nc4cc(S(=O)(=O)O)ccc4S(=O)(=O)O)n3)cc2)c1C#N [black coloring material 1]
604.0 | 604.0 | 0.0 | Cc1c(C#N)c(Nc2ccc(S(=O)(=O)O)cc2)nc(Nc2ccc(S(=O)(=O)O)cc2)c1N=Nc1nc(-c2ccc3ccccc3c2)c(N=Nc2cc(S(=O)(=O)O)c3cc(S(=O)(=O)O)cc(S(=O)(=O)O)c3c2)s1 [black coloring material 4]
559.5 | 555.0 | 4.5 | CCc1cc(C)c(S(=O)(=O)O)c(CC)c1Nc1nc(N(c2nc3ccc(S(=O)(=O)O)cc3s2)c2c(CC)cc(C)c(S(=O)(=O)O)c2CC)cc(C)c1N=Nc1c(C#N)c(C(C)(C)C)nn1-c1nc2ccc(S(=O)(=O)O)cc2s1 [magenta coloring material 1]
512.0 | 508.5 | 3.5 | Cn1c(=O)c(C(=O)c2cccc(S(=O)(=O)O)c2)c2c3c(c(Nc4cc(Nc5nc(NCCNc6nc(Nc7cc(Nc8ccc9c%10c8C(=O)c8ccccc8-c%10c(C(=O)c8cccc(S(=O)(=O)O)c8)c(=O)n9C)c(S(=O)(=O)O)cc7S(=O)(=O)O)nc(Oc7ccc(S(=O)(=O)O)cc7)n6)nc(Oc6ccc(S(=O)(=O)O)cc6)n5)c(S(=O)(=O)O)cc4S(=O)(=O)O)ccc31)C(=O)c1ccccc1-2 [magenta coloring material 2]
451.5 | 427.5 | 24.0 | CC(C)(C)c1nn(-c2cc(C(=O)O)cc(C(=O)O)c2)c(N)c1N=Nc1nnc(SCCSc2nnc(N=Nc3c(C(C)(C)C)nn(-c4cc(C(=O)O)cc(C(=O)O)c4)c3N)s2)s1 [yellow coloring material 1]
408.0 | 417.0 | −9.0 | Cc1cc(Nc2nc(NCCS(=O)(=O)O)nc(Nc3ccc(N=Nc4ccc(N=Nc5ccc(S(=O)(=O)O)cc5)cc4S(=O)(=O)O)c(C)c3)n2)ccc1N=Nc1ccc(N=Nc2ccc(S(=O)(=O)O)cc2)cc1S(=O)(=O)O [yellow coloring material 3]
399.0 | 380.0 | 19.0 | C.I. Direct Yellow 86

Compound | λmaxD [nm] | λmaxW [nm] | Δλmax [nm]
COc1cc(N=Nc2cccc(S(=O)(=O)O)c2)ccc1Nc1nc(NCCS(=O)(=O)O)nc(Nc2ccc(N=Nc3cccc(S(=O)(=O)O)c3)cc2OCCCS(=O)(=O)O)n1 [yellow coloring material 4] | 382.0 | 391.5 | −9.5
